We go through 1 compound from ChEMBL document CHEMBL5329193, “Targeting Mycobacterium tuberculosis iron-scavenging tools: a recent update on siderophores inhibitors” (RSC Med Chem, 2023).

Converted amounts (≈) assume the structure as drawn.

For the experiment, the system named is Mycobacterium tuberculosis. Put plainly: Antitubercular activity against Multi-drug resistant Mycobacterium tuberculosis assessed as inhibition of bacterial growth incubated for 14 days by microplate alamar blue assay. Format: functional. The conditions noted are these: 336 h, time 14 day.

The MIC is the lowest concentration that inhibits growth of the organism. As to `CCCCCCCCCCCCCCCCC(=O)N(O)CCCC[C@H](NC(=O)[C@@H]1COC(c2ccccc2O)=N1)C(=O)NC[C@H](CC(=O)CCCO[C@H]1O[C@@H]2O[C@@]3(C)CC[C@H]4[C@H](C)CC[C@@H]([C@H]1C)[C@@]24OO3)C(=O)N[C@H]1CCCCN(O)C1=O`, the minimal inhibitory concentration (MIC) was determined as 0.16 µg/mL (≈ 0.137 µM).
